Data reported in ChEMBL document CHEMBL1201862, “PubChem BioAssay data set” (2004).
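Values below derive from 48-hour exposures of cells grown in 96-well plates, with endpoints linearly interpolated between the two concentrations bracketing the appropriate inhibition level. GI50 = concentration required for 50% inhibition of growth.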 The source made the active and inactive calls. Rule as the data show it: active = GI50 up to about 1.1 µM and inactive = higher.

Experiments:
Assay in all cases: NCI anticancer screen, dose series, 48 h
[1] = tested on: UACC-257
[2] = tested on: A498
[3] = tested on: TK-10
[4] = tested on: NCI-H522
[5] = tested on: HOP-92
[6] = tested on: Malme-3M
[7] = tested on: IGROV-1
[8] = tested on: SK-MEL-2
[9] = tested on: OVCAR-4
[10] = tested on: SF-295
[11] = tested on: HCT-15
[12] = tested on: SF-268
[13] = tested on: OVCAR-3
[14] = tested on: MCF7
[15] = tested on: A549
[16] = tested on: DU-145
[17] = tested on: ACHN
[18] = tested on: SW-620
[19] = tested on: SK-OV-3
[20] = tested on: NCI-H226
[21] = tested on: HCT-116
[22] = tested on: HOP-62
[23] = tested on: KM12
[24] = tested on: T47D
[25] = tested on: SN12C
[26] = tested on: MOLT-4
[27] = tested on: CCRF-CEM
[28] = tested on: 786-0
[29] = tested on: SK-MEL-5
[30] = tested on: MDA-MB-435
[31] = tested on: SK-MEL-28
[32] = tested on: Hs-578T
[33] = tested on: UO-31
[34] = tested on: COLO 205
[35] = tested on: BT-549
[36] = tested on: MDA-N
[37] = tested on: NCI-H460
[38] = tested on: SNB-75
[39] = tested on: HL-60
[40] = tested on: NCI/ADR-RES
[41] = tested on: NCI-H23
[42] = tested on: SR
[43] = tested on: HCC 2998
[44] = tested on: RPMI-8226
[45] = tested on: M14
[46] = tested on: CAKI-1
[47] = tested on: SF-539
[48] = tested on: UACC-62
[49] = tested on: K562
[50] = tested on: MDA-MB-231
[51] = tested on: LOX IMVI
[52] = tested on: U-251
[53] = tested on: EKVX
[54] = tested on: SNB-19
[55] = tested on: PC-3
[56] = tested on: RXF 393
[57] = tested on: OVCAR-5
[58] = tested on: HT-29
[59] = tested on: OVCAR-8

c1ccc(CNC2CC(NCc3ccccn3)CC(NCc3ccccn3)C2)nc1 (stereo not given)
GI50 [1]: 4.53 µM (inactive)
GI50 [2]: 3.05 µM (inactive)
GI50 [3]: 3.45 µM (inactive)
GI50 [4]: 4.6 µM (inactive)
GI50 [5]: 4.67 µM (inactive)
GI50 [6]: 3.52 µM (inactive)
GI50 [7]: 4.38 µM (inactive)
GI50 [8]: 5.11 µM (inactive)
GI50 [9]: 4.13 µM (inactive)
GI50 [10]: 6.21 µM (inactive)
GI50 [11]: 4.72 µM
GI50 [12]: 5 µM (inactive)
GI50 [13]: 4.08 µM (inactive)
GI50 [14]: 3.5 µM (inactive)
GI50 [15]: 2.61 µM (inactive)
GI50 [16]: 4.73 µM (inactive)
GI50 [17]: 9.51 µM (inactive)
GI50 [18]: 6.61 µM (inactive)
GI50 [19]: 4.46 µM (inactive)
GI50 [20]: 3.32 µM (inactive)
GI50 [21]: 3.1 µM (inactive)
GI50 [22]: 6.89 µM (inactive)
GI50 [23]: 2.7 µM (inactive)
GI50 [24]: 5.66 µM (inactive)
GI50 [25]: 5.22 µM (inactive)
GI50 [26]: 3.39 µM (inactive)
GI50 [27]: 2.61 µM (inactive)
GI50 [28]: 2.38 µM (inactive)
GI50 [29]: 3.54 µM (inactive)
GI50 [30]: 4.5 µM (inactive)
GI50 [31]: 3.08 µM (inactive)
GI50 [32]: 7.66 µM (inactive)
GI50 [33]: > 25 µM (inactive)
GI50 [34]: 1.09 µM (active)
GI50 [35]: 5.27 µM (inactive)
GI50 [36]: 4.47 µM (inactive)
GI50 [37]: 5.15 µM (inactive)
GI50 [38]: 4.27 µM (inactive)

COc1ccc(/C(C)=N/NC(=O)c2ccncc2)cc1OC
GI50 [1]: > 10 µM (inactive)
GI50 [39]: > 10 µM (inactive)
GI50 [2]: > 10 µM (inactive)
GI50 [5]: > 10 µM (inactive)
GI50 [6]: > 10 µM (inactive)
GI50 [7]: > 10 µM (inactive)
GI50 [40]: > 10 µM (inactive)
GI50 [9]: > 10 µM (inactive)
GI50 [41]: > 10 µM (inactive)
GI50 [42]: > 10 µM (inactive)
GI50 [11]: > 10 µM
GI50 [43]: > 10 µM (inactive)
GI50 [12]: > 10 µM (inactive)
GI50 [14]: > 10 µM (inactive)
GI50 [15]: > 10 µM (inactive)
GI50 [16]: > 10 µM (inactive)
GI50 [44]: > 10 µM (inactive)
GI50 [18]: > 10 µM (inactive)
GI50 [19]: > 10 µM (inactive)
GI50 [20]: 2.82 µM (inactive)
GI50 [45]: > 10 µM (inactive)
GI50 [46]: > 10 µM (inactive)
GI50 [22]: > 10 µM (inactive)
GI50 [23]: > 10 µM (inactive)
GI50 [47]: > 10 µM (inactive)
GI50 [24]: > 10 µM (inactive)
GI50 [48]: > 10 µM (inactive)
GI50 [25]: > 10 µM (inactive)
GI50 [26]: > 10 µM (inactive)
GI50 [49]: > 10 µM (inactive)
GI50 [27]: > 10 µM (inactive)
GI50 [28]: > 10 µM (inactive)
GI50 [29]: > 10 µM (inactive)
GI50 [50]: > 10 µM (inactive)
GI50 [51]: > 10 µM (inactive)
GI50 [32]: 7.05 µM (inactive)
GI50 [52]: > 10 µM (inactive)
GI50 [33]: 9.08 µM (inactive)
GI50 [34]: > 10 µM (inactive)
GI50 [35]: > 10 µM (inactive)
GI50 [36]: > 10 µM (inactive)
GI50 [37]: > 10 µM (inactive)
GI50 [38]: > 10 µM (inactive)

COc1cc(C2S/C(=C/c3ccccc3)C(=O)N2c2cccc(NC(C)=O)c2)cc(OC)c1OC (stereo not given)
GI50 [1]: 66.2 µM (inactive)
GI50 [2]: 32.5 µM (inactive)
GI50 [3]: 80.5 µM (inactive)
GI50 [4]: 13.5 µM (inactive)
GI50 [5]: 16.4 µM (inactive)
GI50 [6]: 23.4 µM (inactive)
GI50 [40]: 27.9 µM (inactive)
GI50 [9]: 24.4 µM (inactive)
GI50 [41]: 38 µM (inactive)
GI50 [42]: 37.9 µM (inactive)
GI50 [10]: 40.5 µM (inactive)
GI50 [11]: 30.5 µM
GI50 [43]: 29.6 µM (inactive)
GI50 [12]: 24.1 µM (inactive)
GI50 [14]: 26.1 µM (inactive)
GI50 [15]: 39.2 µM (inactive)
GI50 [17]: 37.2 µM (inactive)
GI50 [53]: 19.3 µM (inactive)
GI50 [19]: 56 µM (inactive)
GI50 [54]: 58.7 µM (inactive)
GI50 [20]: > 100 µM (inactive)
GI50 [45]: 34.4 µM (inactive)
GI50 [55]: 14.1 µM (inactive)
GI50 [46]: 25.9 µM (inactive)
GI50 [21]: 17.2 µM (inactive)
GI50 [56]: 28.8 µM (inactive)
GI50 [22]: 67 µM (inactive)
GI50 [23]: 27.2 µM (inactive)
GI50 [24]: 15.4 µM (inactive)
GI50 [48]: 29.1 µM (inactive)
GI50 [25]: 45.2 µM (inactive)
GI50 [26]: 30.6 µM (inactive)
GI50 [49]: 39.5 µM (inactive)
GI50 [27]: 40.2 µM (inactive)
GI50 [57]: 65.8 µM (inactive)
GI50 [58]: 21.1 µM (inactive)
GI50 [29]: 35.2 µM (inactive)
GI50 [50]: 13.9 µM (inactive)
GI50 [30]: 18.3 µM (inactive)
GI50 [51]: 21.5 µM (inactive)
GI50 [31]: 90.2 µM (inactive)
GI50 [32]: 15.3 µM (inactive)
GI50 [59]: 29.9 µM (inactive)
GI50 [52]: 17.6 µM (inactive)
GI50 [33]: 36.6 µM (inactive)
GI50 [34]: 27.3 µM (inactive)
GI50 [35]: 24.7 µM (inactive)
GI50 [36]: 26.7 µM (inactive)
GI50 [38]: 4.02 µM (inactive)
